Experimental data: patent publication US3989687A, “4-Oxo-1-pyridinyl penicillin derivatives” (Richardson-Merrell Inc., priority 1975, dated 1976)
In brackets after ≈: the same amount, converted by molar mass. Structures can show the parent of a compound that is named as a salt. Where two headings read alike, the source gives them in different places.

Key:
Staphylococcus aureus = assay: in vitro agar plate filter paper disc test, zones of inhibition: Staphylococcus aureus; type: cell-based; details: read-out: Minimal inhibiting concentration, Staphylococcus aureus
Description: (§1) Specific nutrient agar plates are completely innoculated with the various test organisms. Filter paper discs are placed on the surface of the agar and wetted with 0.1 ml. of a solution containing 10, 100 and 1,000 micrograms of the test compound. Zones of inhibition of microbial growth are used to indicate the antibacterial activity of the test compound against the various test organisms employed.
(§2) The following table summarizes the in vitro activity of the following representative compounds: 6-[2-(4-oxo-1-pyridinyl)acetylamino]penicillanicacid, sodium salt (1), 7-[2-(4-oxo-1-pyridinyl)acetylamino]desacetoxycephalosporanic acid (2), 6-[2-(3,5-diiodo-4-oxo-1-pyridinyl)acetylamino]penicillanic acid, sodium salt (3), 7-[2-(2,6-dimethyl-4-oxo-1-pyridinyl)acetylamino]desacetoxycephalosporanicacid, sodium salt (4), 7-[2-(4-oxo-1-pyridinyl)acetylamino]cephalosporanicacid, sodium salt (5) and 6-[2-(4-oxo-1-quinolinyl)acetylamino]penicillanic acid, sodium salt (6).

[1] = system: Salmonella schottmuelleri; assay: in vitro agar plate filter paper disc test, zones of inhibition: Salmonella schottmuelleri; type: cell-based; details: read-out: Minimal inhibiting concentration, Salmonella schottmuelleri
Description: as §1, §2

Streptococcus pyogenes = assay: in vitro agar plate filter paper disc test, zones of inhibition: Streptococcus pyogenes; type: cell-based; details: read-out: Minimal inhibiting concentration, Streptococcus pyogenes
Description: as §1, §2

[2] = system: (Penicillinase Producing) Staphylococcus aureus; assay: in vitro agar plate filter paper disc test, zones of inhibition: penicillinase producing Staphylococcus aureus; type: cell-based; details: read-out: Minimal inhibiting concentration, (Penicillinase Producing) Staphylococcus aureus
Description: as §1, §2

acid resistance = type: physicochemical
[3] = in vitro, 0.1 ml. of a solution containing 10, 100 and 1,000 micrograms on filter paper discs
[4] = in vitro, penicillinase producing strain, 0.1 ml. of a solution containing 10, 100 and 1,000 micrograms on filter paper discs

SMILES	MIC (Staphylococcus aureus)	MIC [1]	MIC (Streptococcus pyogenes)	MIC [2]	Acid Resistance (acid resistance)	MIC (Staphylococcus aureus; [3])	MIC [1, 3]	MIC (Streptococcus pyogenes; [3])	MIC [2, 4]
CC1(C)S[C@@H]2C(NC(=O)Cn3ccc(=O)c4ccccc43)C(=O)N2[C@H]1C(=O)[O-].[Na+] (stereo partly drawn) [(6), 6-[2-(4-oxo-1-quinolinyl)acetylamino]penicillanic acid, sodium salt]	10 µg/mL	100 µg/mL	1000 µg/mL	1000 µg/mL	Yes				
CC1=C(C(=O)O)N2C(=O)C(NC(=O)Cn3ccc(=O)cc3)C2SC1 (stereo not drawn) [(2), 7-[2-(4-oxo-1-pyridinyl)acetylamino]desacetoxycephalosporanic acid]					Yes	1000 µg/mL (≈ 2860 µM)	> 1000 µg/mL	1000 µg/mL (≈ 2860 µM)	> 1000 µg/mL
CC1(C)S[C@@H]2C(NC(=O)Cn3cc(I)c(=O)c(I)c3)C(=O)N2[C@H]1C(=O)[O-].[Na+] (stereo partly drawn) [(3), 6-[2-(3,5-diiodo-4-oxo-1-pyridinyl)acetylamino]penicillanic acid, sodium salt]	10 µg/mL	100 µg/mL	> 1000 µg/mL	> 1000 µg/mL	Yes				
CC(=O)OCC1=C(C(=O)O)N2C(=O)C(NC(=O)Cn3ccc(=O)cc3)C2SC1 (stereo not drawn) [(5), 7-[2-(4-oxo-1-pyridinyl)acetylamino]cephalosporanicacid, sodium salt]					Yes	10 µg/mL	100 µg/mL	100 µg/mL	1000 µg/mL
CC1=C(C(=O)O)N2C(=O)C(NC(=O)Cn3c(C)cc(=O)cc3C)C2SC1 (stereo not drawn) [(4), 7-[2-(2,6-dimethyl-4-oxo-1-pyridinyl)acetylamino]desacetoxycephalosporanicacid, sodium salt]					Yes	1000 µg/mL	> 1000 µg/mL	> 1000 µg/mL	> 1000 µg/mL
CC1(C)S[C@@H]2C(NC(=O)Cn3ccc(=O)cc3)C(=O)N2[C@H]1C(=O)[O-].[Na+] (stereo partly drawn) [(1), 6-[2-(4-oxo-1-pyridinyl)acetylamino]penicillanicacid, sodium salt]	10 µg/mL	100 µg/mL	1000 µg/mL	1000 µg/mL	Yes				
